Assays:
Assay type in all cases: cell-based
[1] = system: cells; test: Cytotoxicity / cell metabolic activity on exposure to N16
Text: We investigated the specificity of the inhibitory effect. F15 and N16 impaired Tsg101-co-localization with Gag on the plasma membrane (c.f, FIG. 19) and reduced release of the VLPs assembled by Gag (c.f, FIG. 15). […] Cell metabolic activity was not affected after exposure to N16 for 24 hr; it decreased by less than 10% after exposure to N16 for 48 hr (not shown). Tsg101 localization to the midbody of dividing cells requires its recruitment to that location by centrosomal protein of 55k (CEP55) which binds a site in the Tsg101 Pro-rich domain (aa 154-166) (Lee, H. H., et al. (2008)). Finding this function unaffected at a concentration inhibitory to virus budding is consistent with the lack of any indication that cell division was reduced in the presence of N16. The lack of effect on this function also supports the specificity of N16 targeting as limited to functions of the Tsg101 UEV domain. EGF ligand-binding to EGFR on the cell surface signals receptor internalization, ubiquitination, and sequential ESCRT 0-, I-, II- and III-mediated transport to degradative compartments, ultimately lowering the EGFR steady-state level (Tomas, A., et al. (2014)). This trafficking requires the engagement of the P(T/S)AP-binding pocket in the Tsg101 UEV domain with the PSAP motif in hepatocyte growth factor-regulated tyrosine kinase substrate (Hrs), a component of ESCRT-0 (Lu, Q., et al. (2003)). The down-regulation function remained unimpaired at concentrations well above 50 JAM.

[2] = system: Tsg101 midbody localization; test: Tsg101 midbody localization in dividing cells; conditions: N16 50 uM; 200 cells sampled; 12% in absence
Method: FIG. 20A-C. N16 inhibition is virus-specific. A) N16 IC50 for Hela and 293T cells. […] Values were calculated by measuring metabolic activity (WST-1 Assay, Roche Applied Science) after cells were grown for 24 hr in N16. Data points represent the mean of 2 assays, 3 time points each for each cell line. […] Values in the absence or presence of N16 (50 uM) were 12% and 13%, respectively). C) N16 effect on EGF-stimulated EFGR degradation. Cells maintained for 24 hr in media containing DMSO alone or DMSO and N16 were stimulated with EGF ligand for a 90 min period and then assessed for EGFR steady-state level by Western analysis. EGFR levels for unstimulated and stimulated sample pairs are shown. A) n=2; B) n=2; C) n=2.
We investigated the specificity of the inhibitory effect. F15 and N16 impaired Tsg101-co-localization with Gag on the plasma membrane (c.f, FIG. 19) and reduced release of the VLPs assembled by Gag (c.f, FIG. 15). […] Cell metabolic activity was not affected after exposure to N16 for 24 hr; it decreased by less than 10% after exposure to N16 for 48 hr (not shown). Tsg101 localization to the midbody of dividing cells requires its recruitment to that location by centrosomal protein of 55k (CEP55) which binds a site in the Tsg101 Pro-rich domain (aa 154-166) (Lee, H. H., et al. (2008)). […]

[3] = system: HIV-1 NL4-3; test: Spreading infection of Jurkat cells infected with NL4-3, p24 capture ELISA
Method: FIG. 16A-B. N16 inhibition of HIV-1 transmission in a spreading infection in Jurkat cells. A) Schematic diagram summarizing experimental protocol. Jurkat cells (triplicate samples of 5×10^5/well) were incubated for 2 hr with HIV-1 NL4-3 in treatment media containing 50 μM N16 or control vehicle (DMSO). At the end of this period, unbound virus was removed by centrifugation and the cells washed once, resuspended in fresh media and returned to the 37° C. incubator. For the next 15 days, tissue culture media was removed daily by centrifugation and saved for virus measurement by p24 capture ELISA and cells were replenished with fresh control or N16 treatment media. B) ELISA readings. In control media (containing DMSO), virus replication peaked at day 11; in the presence of N16, production peaked at 13 days. […] Cells were monitoring periodically for viability by Trypan Blue assay. To test their ability to produce virus after this sustained exposure, at day 15 the N16-treated cells were washed, fresh media without inhibitor was added and the cells were incubated 4 days longer (to day 19). The supernatant was collected, the cells were washed again and then incubated for another 4 days in media with inhibitor, adding fresh inhibitor daily. The final supernatant was collected on day 23. […] Thus, the cells maintained the ability to produce virus and the virus in the population at 15 days was essentially as susceptible to N16 as the initial virus population used to infect the Jurkat cells. Number of independent trials: n=2.
To investigate whether the ability to bind the UEV domain could affect Tsg101's function during HIV's budding process, viral particle production was tested (FIG. 15). […] Addition of N16 at 24 hr post-transfection had little effect on budding even at higher concentrations (FIG. 15A, bottom). […] After 15 days, virus production was reduced by 15-fold. Cell viability was maintained under these conditions of sustained drug exposure as indicated by trypan blue viability assay every 3rd day. […] Following the re-addition of N16 to the media, virus titer at this point was reduced 50-fold 4 days indicating maintenance of drug susceptibility.

## COc1ccc2[nH]c([S+]([O-])Cc3ncc(C)c(OC)c3C)nc2n1 (stereo not drawn) [N16, tenatoprazole]
[1]; 50 μM, 24 hr exposure
  cytotoxicity: did not induce detectable cytotoxicity
[1]; exposure to N16 for 24 hr
  cell metabolic activity: not affected
[1]; exposure to N16 for 48 hr, not shown
  decrease of cell metabolic activity: less than 10%
[2]
  frequency of cells exhibiting Tsg101 midbody localization: 13%
[3]; 50 μM N16, Jurkat cells, peak values / after 15 days
  reduction of virus production: 15 fold
[3]; 50 μM N16, control peaked at day 11
  time of peak virus production: 13 days
[3]; media without inhibitor, 4 days (day 15 to 19)
  resurgence of virus when N16 removed: 10 fold
[3]; re-addition of N16, 4 days (to day 23)
  reduction of virus on re-addition of N16: 50 fold
[3]; sustained drug exposure, every 3rd day
  cell viability, trypan blue assay: maintained

From patent US12059413B2, “Methods of inhibiting viruses using compositions targeting TSG101-ubiquitin interaction” (The Research Foundation for the State University of New York, priority 2016, dated 2024)
